Measurements: US20180243260A1, “METHODS OF TREATING COGNITIVE AND BEHAVIORAL IMPAIRMENT IN DOWN SYNDROME AND ALZHEIMERS DISEASE PATIENTS” (AVANTI BIOSCIENCES INC., priority 2016, published 2018)

Biological target: T1, DYRK1A (Rattus norvegicus, UniProt Q63470)
T1 construct: 6x histidine tag (HT)
Assay: DYRK1A ELISA non-radioactive kinase assay
Assay type: biochemical
Conditions: HT-PRD substrate, 100 μM ATP, 30 min at 30° C.
Protocol: Decant HT-PRD solution, wash the wells twice with Tris dilution buffer. Block each well with 150 μl BSA/PBST blocking buffer PBST (2% BSA in PBS with 0.25% Tween 20) for at least 1 hr at room temperature.
Decant the blocking solution and wash the wells 3-4 times with Tris dilution buffer. Perform DYRK1A phosphorylation in the well with 100 μl reaction buffer (25 mM HEPES, pH 7.4, 100 mM NaCl, 5 mM MgCl2, and 100 μM ATP) containing DYRK1A (eg. 5-10 ng purified HT-DYRK1A) and inhibitor, if necessary, for 30 min at 30° C. […] Use 80 μl of this mixture in the reaction will give final ATP concentration of 100 μM. ATP concentrations may be adjusted if necessary. • 2. Add 10 μl inhibitor. If the inhibitor is dissolved in DMSO, shake the plate gently for 1 min before adding kinase. • 3. Dilute DYRK1A in Tris dilution buffer to a concentration of 0.5 ng/l (prepare fresh every time). • 4. Initiate phosphorylation by adding 10 l DYRK1A to each well.
Decant the phosphorylation solution and wash the wells three times with PBST. Add 100 μl diluted antibody 3D3 (eg. 2˜3K dilution of 1.5 mg/ml stock in BSA blocking buffer) and incubate for 1 hr at room temperature.
Decant the primary antibody solution and wash the wells three times with PBST. Add 100 μl diluted AP-conjugated anti-mouse IgG (5K dilution of anti-mouse IgG-AP in BSA blocking buffer) and incubate for 1 hr at room temperature.
Color Development and Detection.
Decant the secondary antibody and wash the wells extensively (3-4 times) with AP buffer (10 mM Tris-HCl, pH 9.5, 10 mM NaCl, and 5 mM MgCl2). Add 100 μl p-nitrophenyl phosphate solution (1 mg/ml in AP buffer or 1 PNPP tablet per 5 ml 1× diethanolamine substrate buffer) and incubate the plate at 30° C. Yellow color should start appearing in a few minutes. OD at 405 nm usually can be read between 10-30 min.

| SMILES | IC50 [µM] |
| --- | --- |
| Oc1cc(O)c2c(c1)O[C@H](c1cc(O)c(O)c(O)c1)[C@H](O)C2 [(2R,3R)-2-(3,4,5-trihydroxyphenyl)chroman-3,5,7-triol] | > 100 |
| O=C(O[C@@H]1Cc2c(O)cc(O)cc2O[C@@H]1c1ccc(O)c(O)c1)c1cc(O)c(O)c(O)c1 [(2R,3R)-2-(3,4-dihydroxyphenyl)-5,7-dihydroxychroman-3-yl 3,4,5-trihydroxybenzoate] | 0.52 |
| Oc1cc(O)c2c(c1)O[C@H](c1ccc(O)c(O)c1)[C@H](O)C2 [(2R,3R)-2-(3,4-dihydroxyphenyl)chroman-3,5,7-triol] | > 100 |
| COc1c(O)cc([C@H]2Oc3cc(O)cc(O)c3C[C@H]2OC(=O)c2cc(O)c(O)c(O)c2)cc1O [(2R,3R)-2-(3,5-dihydroxy-4-methoxyphenyl)-5,7-dihydroxychroman-3-yl 3,4,5-trihydroxybenzoate] | 5.8 |
| COc1c(O)cc(C(=O)O[C@@H]2Cc3c(O)cc(O)cc3O[C@@H]2c2cc(O)c(O)c(O)c2)cc1O [(2R,3R)-5,7-dihydroxy-2-(3,4,5-trihydroxyphenyl)chroman-3-yl 3,5-dihydroxy-4-methoxybenzoate] | 25.1 |
| Oc1cc(O)c2c(c1)O[C@@H](c1cc(O)c(O)c(O)c1)[C@H](O)C2 [(2S,3R)-2-(3,4,5-trihydroxyphenyl)chroman-3,5,7-triol] | > 100 |
| O=C(O[C@@H]1Cc2c(O)cc(O)cc2O[C@H]1c1ccc(O)c(O)c1)c1cc(O)c(O)c(O)c1 [(2S,3R)-2-(3,4-dihydroxyphenyl)-5,7-dihydroxychroman-3-yl 3,4,5-trihydroxybenzoate] | 0.18 |
| Oc1cc(O)c2c(c1)O[C@@H](c1ccc(O)c(O)c1)[C@H](O)C2 [(2S,3R)-2-(3,4-dihydroxyphenyl)chroman-3,5,7-triol] | > 100 |

Biological target: DYRK1A (Homo sapiens, UniProt Q13627)
Assay: not given
Conditions: non-ATP competitive DYRK1A inhibitor; Bain, J., et al., Biochem J 408 (2007); cited from earlier work

| SMILES | IC50 [µM] |
| --- | --- |
| O=C(O[C@@H]1Cc2c(O)cc(O)cc2O[C@@H]1c1cc(O)c(O)c(O)c1)c1cc(O)c(O)c(O)c1 [EGCG, Epigallocatechin gallate] | 0.33 |

Test system: DS patients
Assay: not given
Conditions: randomized, double-blinded placebo-controlled study, De la Torre et al. 2014; cited from earlier work

| SMILES | memory recognition, working memory and quality of life |
| --- | --- |
| O=C(O[C@@H]1Cc2c(O)cc(O)cc2O[C@@H]1c1cc(O)c(O)c(O)c1)c1cc(O)c(O)c(O)c1 [EGCG, Epigallocatechin gallate] | improved memory recognition, working memory and quality of life |
